Measured values taken from ChEMBL document CHEMBL5649169 (ChemMedChem, 2018).

Columns and labels:
[1] = target: Conserved oligomeric Golgi complex subunit 5 (Homo sapiens) (UniProt Q9UP83)
[2] = target: Lysophosphatidylcholine acyltransferase 1 (Homo sapiens) (UniProt Q8NF37)
[3] = target: Cytochrome c oxidase assembly protein COX14 (Homo sapiens) (UniProt Q96I36)
[4] = target: Mitochondrial 2-oxodicarboxylate carrier (Homo sapiens) (UniProt Q9BQT8)
[5] = target: Elongation factor G, mitochondrial (Homo sapiens) (UniProt Q96RP9)
[6] = target: 14-3-3 protein zeta/delta (Homo sapiens) (UniProt P63104)
Homo sapiens [7] = species on record: Homo sapiens
[8] = target: Nucleolar protein 58 (Homo sapiens) (UniProt Q9Y2X3)
[9] = target: Ubiquitin-protein ligase E3A (Homo sapiens) (UniProt Q05086)
[10] = target: Lipid scramblase CLPTM1L (Homo sapiens) (UniProt Q96KA5)
Homo sapiens [11] = species on record: Homo sapiens; remark: listed apart in the source
[12] = target: Activated RNA polymerase II transcriptional coactivator p15 (Homo sapiens) (UniProt P53999)
[13] = target: Programmed cell death protein 2-like (Homo sapiens) (UniProt Q9BRP1)
[14] = target: Translation initiation factor eIF2B subunit epsilon (Homo sapiens) (UniProt Q13144)
Homo sapiens [15] = species on record: Homo sapiens; remark: listed apart in the source
[16] = target: ATP-binding cassette sub-family F member 2 (Homo sapiens) (UniProt Q9UG63)
[17] = target: Small ribosomal subunit protein uS2 (Homo sapiens) (UniProt P08865)
[18] = target: Polyadenylate-binding protein 4 (Homo sapiens) (UniProt Q13310)
[19] = target: Small ribosomal subunit protein RACK1 (Homo sapiens) (UniProt P63244)
[20] = target: Heterogeneous nuclear ribonucleoprotein D-like (Homo sapiens) (UniProt O14979)
[21] = target: Prospero homeobox protein 1 (Homo sapiens) (UniProt Q92786)
[22] = target: Testis-expressed protein 10 (Homo sapiens) (UniProt Q9NXF1)
[23] = target: Unconventional myosin-Ig (Homo sapiens) (UniProt B0I1T2)
Cyclin-I (Homo sapiens) = Cyclin-I (Homo sapiens) (UniProt Q14094)
[24] = target: Ras suppressor protein 1 (Homo sapiens) (UniProt Q15404)
Homo sapiens [25] = species on record: Homo sapiens; remark: listed apart in the source
[26] = target: Ubiquitin-conjugating enzyme E2 G2 (Homo sapiens) (UniProt P60604)
[27] = target: La-related protein 7 (Homo sapiens) (UniProt Q4G0J3)
[28] = target: Uncharacterized aarF domain-containing protein kinase 5 (Homo sapiens) (UniProt Q3MIX3)
[29] = target: HLA class I histocompatibility antigen, B alpha chain (Homo sapiens) (UniProt P01889)
[30] = target: PHD finger protein 6 (Homo sapiens) (UniProt Q8IWS0)
[31] = target: V-type proton ATPase 16 kDa proteolipid subunit c (Homo sapiens) (UniProt P27449)
[32] = target: Large ribosomal subunit protein bL21m (Homo sapiens) (UniProt Q7Z2W9)
[33] = target: Macrophage migration inhibitory factor (Homo sapiens) (UniProt P14174)
[34] = target: Membrane-bound glycerophospholipid O-acyltransferase 1 (Homo sapiens) (UniProt Q6ZNC8)
[35] = target: Antigen peptide transporter 1 (Homo sapiens) (UniProt Q03518)
[36] = target: 45 kDa calcium-binding protein (Homo sapiens) (UniProt Q9BRK5)
[37] = target: Thioredoxin reductase 1, cytoplasmic (Homo sapiens) (UniProt Q16881)
[38] = target: 3-hydroxyacyl-CoA dehydrogenase type-2 (Homo sapiens) (UniProt Q99714)
[39] = target: Importin-7 (Homo sapiens) (UniProt O95373)
[40] = target: 14-3-3 protein beta/alpha (Homo sapiens) (UniProt P31946)
[41] = target: E3 ubiquitin-protein ligase listerin (Homo sapiens) (UniProt O94822)
[42] = target: Solute carrier family 25 member 3 (Homo sapiens) (UniProt Q00325)
[43] = target: NAD(P) transhydrogenase, mitochondrial (Homo sapiens) (UniProt Q13423)
[44] = target: Protein-L-isoaspartate(D-aspartate) O-methyltransferase (Homo sapiens) (UniProt P22061)
[45] = target: Protein PRRC2C (Homo sapiens) (UniProt Q9Y520)
[46] = target: Histone-arginine methyltransferase CARM1 (Homo sapiens) (UniProt Q86X55)
[47] = target: Reticulon-3 (Homo sapiens) (UniProt O95197)
Further: assay method not described here.

Sequence of Membrane-bound glycerophospholipid O-acyltransferase 1 (Homo sapiens) (Q6ZNC8 whole entry): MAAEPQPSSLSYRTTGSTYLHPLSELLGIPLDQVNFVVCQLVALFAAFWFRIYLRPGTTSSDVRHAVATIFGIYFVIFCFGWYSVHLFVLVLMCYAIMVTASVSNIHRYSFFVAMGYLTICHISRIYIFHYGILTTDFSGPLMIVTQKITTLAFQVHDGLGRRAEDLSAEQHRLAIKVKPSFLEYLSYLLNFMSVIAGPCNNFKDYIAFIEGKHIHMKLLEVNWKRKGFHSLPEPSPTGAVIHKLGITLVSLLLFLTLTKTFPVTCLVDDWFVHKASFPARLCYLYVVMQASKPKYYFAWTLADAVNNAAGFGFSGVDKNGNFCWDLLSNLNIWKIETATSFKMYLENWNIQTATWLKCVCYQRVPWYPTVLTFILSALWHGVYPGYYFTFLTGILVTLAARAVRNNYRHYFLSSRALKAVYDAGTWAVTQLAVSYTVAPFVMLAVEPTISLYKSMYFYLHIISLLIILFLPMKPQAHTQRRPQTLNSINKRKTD
Sequence of PHD finger protein 6 (Homo sapiens) (Q8IWS0 whole entry): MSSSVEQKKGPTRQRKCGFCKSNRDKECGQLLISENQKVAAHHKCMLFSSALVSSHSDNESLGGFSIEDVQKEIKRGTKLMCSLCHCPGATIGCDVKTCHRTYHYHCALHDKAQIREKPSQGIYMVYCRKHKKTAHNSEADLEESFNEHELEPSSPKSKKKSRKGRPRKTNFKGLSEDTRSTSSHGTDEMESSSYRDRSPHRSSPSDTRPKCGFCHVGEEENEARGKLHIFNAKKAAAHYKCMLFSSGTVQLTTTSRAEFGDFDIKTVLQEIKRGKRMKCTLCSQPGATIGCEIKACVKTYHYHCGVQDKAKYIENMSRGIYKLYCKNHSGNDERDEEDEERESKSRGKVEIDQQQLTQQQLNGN
Sequence of Conserved oligomeric Golgi complex subunit 5 (Homo sapiens) (Q9UP83 whole entry, one chain of several): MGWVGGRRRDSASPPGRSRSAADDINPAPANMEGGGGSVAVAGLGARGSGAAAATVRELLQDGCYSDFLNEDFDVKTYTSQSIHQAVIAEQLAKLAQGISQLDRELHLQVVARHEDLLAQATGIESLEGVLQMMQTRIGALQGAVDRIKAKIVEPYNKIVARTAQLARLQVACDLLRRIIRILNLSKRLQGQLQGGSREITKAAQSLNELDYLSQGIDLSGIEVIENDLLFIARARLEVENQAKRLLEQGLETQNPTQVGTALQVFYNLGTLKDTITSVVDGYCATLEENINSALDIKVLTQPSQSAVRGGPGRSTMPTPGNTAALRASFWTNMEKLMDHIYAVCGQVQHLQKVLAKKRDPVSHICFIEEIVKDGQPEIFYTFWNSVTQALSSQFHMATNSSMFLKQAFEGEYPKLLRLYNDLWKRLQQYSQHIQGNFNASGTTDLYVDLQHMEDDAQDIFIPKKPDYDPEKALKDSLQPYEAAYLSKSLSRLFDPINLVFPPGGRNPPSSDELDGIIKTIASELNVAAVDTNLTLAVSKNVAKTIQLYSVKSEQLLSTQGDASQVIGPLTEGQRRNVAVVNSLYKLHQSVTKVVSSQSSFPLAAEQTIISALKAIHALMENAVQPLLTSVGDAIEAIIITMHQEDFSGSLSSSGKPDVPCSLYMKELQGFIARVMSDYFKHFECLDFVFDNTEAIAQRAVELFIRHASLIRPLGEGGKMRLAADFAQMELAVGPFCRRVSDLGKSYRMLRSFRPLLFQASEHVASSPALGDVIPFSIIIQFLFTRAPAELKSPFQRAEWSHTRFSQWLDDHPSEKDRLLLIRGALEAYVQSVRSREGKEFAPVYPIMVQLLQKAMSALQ
Sequence of Histone-arginine methyltransferase CARM1 (Homo sapiens) (Q86X55 whole entry): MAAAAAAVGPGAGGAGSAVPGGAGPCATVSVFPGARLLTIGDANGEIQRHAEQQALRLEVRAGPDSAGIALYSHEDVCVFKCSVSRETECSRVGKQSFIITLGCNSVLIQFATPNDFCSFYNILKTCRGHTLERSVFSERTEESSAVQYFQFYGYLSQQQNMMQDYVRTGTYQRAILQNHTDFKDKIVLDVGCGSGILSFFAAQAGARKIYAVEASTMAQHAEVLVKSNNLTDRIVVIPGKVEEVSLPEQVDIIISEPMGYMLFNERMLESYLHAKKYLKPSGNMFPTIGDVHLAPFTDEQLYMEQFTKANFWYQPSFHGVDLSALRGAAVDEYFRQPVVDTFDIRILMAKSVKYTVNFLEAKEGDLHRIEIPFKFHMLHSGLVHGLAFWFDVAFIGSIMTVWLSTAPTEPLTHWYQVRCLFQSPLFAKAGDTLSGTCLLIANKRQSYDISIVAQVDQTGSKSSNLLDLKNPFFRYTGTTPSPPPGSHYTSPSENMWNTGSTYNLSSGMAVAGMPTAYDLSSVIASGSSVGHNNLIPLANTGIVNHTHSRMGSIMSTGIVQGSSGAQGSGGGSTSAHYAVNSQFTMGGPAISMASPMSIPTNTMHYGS
Sequence of Macrophage migration inhibitory factor (Homo sapiens) (P14174 whole entry): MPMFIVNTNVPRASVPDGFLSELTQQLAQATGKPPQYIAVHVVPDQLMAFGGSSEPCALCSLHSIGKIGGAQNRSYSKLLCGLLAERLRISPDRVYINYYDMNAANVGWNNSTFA
Sequence of Ubiquitin-conjugating enzyme E2 G2 (Homo sapiens) (P60604 whole entry): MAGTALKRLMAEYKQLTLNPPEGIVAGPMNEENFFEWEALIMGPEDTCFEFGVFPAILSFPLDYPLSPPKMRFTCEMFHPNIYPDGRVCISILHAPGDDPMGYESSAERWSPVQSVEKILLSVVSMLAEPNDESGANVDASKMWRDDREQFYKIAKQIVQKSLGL
Sequence of Lysophosphatidylcholine acyltransferase 1 (Homo sapiens) (Q8NF37 whole entry): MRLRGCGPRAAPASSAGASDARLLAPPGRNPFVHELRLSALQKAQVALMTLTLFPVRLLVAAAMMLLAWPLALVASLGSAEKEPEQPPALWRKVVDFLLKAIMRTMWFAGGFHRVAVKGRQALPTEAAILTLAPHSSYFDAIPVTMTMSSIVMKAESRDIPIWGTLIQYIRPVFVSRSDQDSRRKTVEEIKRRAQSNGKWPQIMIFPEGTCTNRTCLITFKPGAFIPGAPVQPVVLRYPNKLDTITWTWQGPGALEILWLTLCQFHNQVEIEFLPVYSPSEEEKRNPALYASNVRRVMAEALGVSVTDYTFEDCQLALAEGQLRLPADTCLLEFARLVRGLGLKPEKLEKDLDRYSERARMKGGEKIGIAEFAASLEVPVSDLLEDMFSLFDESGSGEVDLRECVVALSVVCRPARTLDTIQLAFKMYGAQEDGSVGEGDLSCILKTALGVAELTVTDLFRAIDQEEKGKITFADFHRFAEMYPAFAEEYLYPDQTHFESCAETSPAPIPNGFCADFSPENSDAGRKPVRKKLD
Sequence of Reticulon-3 (Homo sapiens) (O95197 whole entry): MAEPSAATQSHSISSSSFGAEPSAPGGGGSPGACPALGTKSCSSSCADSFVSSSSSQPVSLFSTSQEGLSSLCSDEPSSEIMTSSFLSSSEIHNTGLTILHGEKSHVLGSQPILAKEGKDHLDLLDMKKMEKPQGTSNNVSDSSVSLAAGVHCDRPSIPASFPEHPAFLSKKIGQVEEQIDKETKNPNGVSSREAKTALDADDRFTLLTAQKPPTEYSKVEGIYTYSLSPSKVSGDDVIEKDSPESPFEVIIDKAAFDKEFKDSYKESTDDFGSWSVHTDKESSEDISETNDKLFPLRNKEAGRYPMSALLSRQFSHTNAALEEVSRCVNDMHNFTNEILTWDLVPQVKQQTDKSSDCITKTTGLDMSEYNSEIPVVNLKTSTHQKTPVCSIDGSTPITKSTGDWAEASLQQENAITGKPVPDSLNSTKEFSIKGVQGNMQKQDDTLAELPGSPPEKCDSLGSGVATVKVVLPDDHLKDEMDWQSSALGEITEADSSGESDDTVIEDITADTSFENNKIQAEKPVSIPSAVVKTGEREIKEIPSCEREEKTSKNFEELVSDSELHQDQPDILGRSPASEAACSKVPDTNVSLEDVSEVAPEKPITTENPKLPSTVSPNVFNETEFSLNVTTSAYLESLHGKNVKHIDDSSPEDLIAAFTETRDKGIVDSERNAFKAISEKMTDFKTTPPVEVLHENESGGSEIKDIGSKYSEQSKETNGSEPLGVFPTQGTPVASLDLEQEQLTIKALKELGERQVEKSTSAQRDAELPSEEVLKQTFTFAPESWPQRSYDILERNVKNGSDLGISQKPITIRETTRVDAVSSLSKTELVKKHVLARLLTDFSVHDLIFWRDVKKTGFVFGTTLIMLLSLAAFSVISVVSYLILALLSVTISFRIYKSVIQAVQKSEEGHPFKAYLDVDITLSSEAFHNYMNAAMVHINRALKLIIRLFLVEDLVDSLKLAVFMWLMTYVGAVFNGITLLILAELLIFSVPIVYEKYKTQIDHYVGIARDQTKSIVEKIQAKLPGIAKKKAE
Sequence of V-type proton ATPase 16 kDa proteolipid subunit c (Homo sapiens) (P27449 whole entry): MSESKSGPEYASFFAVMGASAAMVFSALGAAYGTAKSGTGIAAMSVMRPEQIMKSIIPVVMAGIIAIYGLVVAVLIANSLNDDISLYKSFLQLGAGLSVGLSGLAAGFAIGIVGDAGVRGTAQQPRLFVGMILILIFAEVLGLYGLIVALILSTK
Sequence of Uncharacterized aarF domain-containing protein kinase 5 (Homo sapiens) (Q3MIX3 whole entry, the tested form may be a part): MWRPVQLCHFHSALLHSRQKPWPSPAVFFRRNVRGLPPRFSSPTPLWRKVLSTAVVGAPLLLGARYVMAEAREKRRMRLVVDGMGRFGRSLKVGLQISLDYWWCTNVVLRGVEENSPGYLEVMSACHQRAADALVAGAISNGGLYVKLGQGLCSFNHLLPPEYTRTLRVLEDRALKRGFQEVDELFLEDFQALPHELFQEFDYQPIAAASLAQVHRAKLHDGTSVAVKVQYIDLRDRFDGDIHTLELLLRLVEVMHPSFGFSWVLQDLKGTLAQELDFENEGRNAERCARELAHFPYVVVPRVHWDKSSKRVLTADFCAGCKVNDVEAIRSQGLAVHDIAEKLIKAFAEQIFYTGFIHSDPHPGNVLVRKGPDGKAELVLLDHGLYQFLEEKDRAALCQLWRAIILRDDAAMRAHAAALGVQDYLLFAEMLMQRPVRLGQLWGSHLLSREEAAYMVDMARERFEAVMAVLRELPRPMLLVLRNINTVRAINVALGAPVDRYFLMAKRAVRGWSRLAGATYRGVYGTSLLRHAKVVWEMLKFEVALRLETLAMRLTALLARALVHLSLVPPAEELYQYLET
Sequence of Cytochrome c oxidase assembly protein COX14 (Homo sapiens) (Q96I36 whole entry): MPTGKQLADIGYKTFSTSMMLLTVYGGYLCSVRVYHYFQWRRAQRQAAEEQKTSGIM

Compound: Cc1ccc(C(=O)Nc2cccc(C(F)(F)F)c2)cc1Nc1nc(-c2cccnc2)nc2c1cnn2C
- ED50 [1]: 7.29 µM
- ED50 [2]: 0.896 µM
- ED50 [3]: 0.00496 µM
- ED50 [4]: 120 µM
- ED50 [5]: 0.136 µM
- ED50 [6]: 0.00453 µM
- ED50 (Homo sapiens [7]): 4.42 µM
- ED50 [8]: 0.0287 µM
- ED50 [9]: 6.96 µM
- ED50 [10]: 0.00816 µM
- ED50 (Homo sapiens [11]): 1590 µM
- ED50 [12]: 1090 µM
- ED50 [13]: 4.49 µM
- ED50 [14]: 5.15 µM
- ED50 (Homo sapiens [15]): 15.5 µM
- ED50 [16]: 5.47 µM
- ED50 [17]: 1.96 µM
- ED50 [18]: 12.1 µM
- ED50 [19]: 2.87 µM
- ED50 [20]: 0.0685 µM
- ED50 [21]: 6.66 µM
- ED50 [22]: 18 µM
- ED50 [23]: 0.00217 µM
- ED50 (Cyclin-I (Homo sapiens)): 26.5 µM
- ED50 [24]: 93.4 µM
- ED50 (Homo sapiens [25]): 0.723 µM
- ED50 [26]: 0.00416 µM
- ED50 [27]: 13.7 µM
- ED50 [28]: 1150 µM
- ED50 [29]: 0.00982 µM
- ED50 [30]: 2.01 µM
- ED50 [31]: 2.7 µM
- ED50 [32]: 5.95 µM
- ED50 [33]: 0.00224 µM
- ED50 [34]: 0.9 µM
- ED50 [35]: 0.0639 µM
- ED50 [36]: 0.519 µM

Compound: Cc1ccc(C(=O)Nc2cccc(C(F)(F)F)c2)cc1Nc1nc(-c2cccnc2)nc2nn(C)cc12
- ED50 [37]: 0.19 µM
- ED50 [38]: 0.0508 µM
- ED50 [39]: 0.0181 µM
- ED50 [40]: 0.0807 µM
- ED50 [41]: 0.753 µM
- ED50 [42]: 8.08 µM
- ED50 [43]: 0.00568 µM
- ED50 [44]: 0.393 µM
- ED50 [45]: 2.52 µM
- ED50 [46]: 0.113 µM
- ED50 [47]: 0.0206 µM
